Values quoted from earlier work as cited in patent US7747395B2, “Method of inhibitor design and identification using a 3-D structure of human peptide deformylase” (Sloan-Kettering Institute for Cancer Research, priority 2007, dated 2010).

System: drug resistant bacterial strains
Conditions: cited from earlier work

SMILES: CC(C)(C)[C@H](NC(=O)[C@H](CC1CCCC1)CN(O)C=O)C(=O)N1CCN(Cc2ccc3c(c2)OCO3)CC1 [BB-83698]
- antibacterial activity in vitro: broad spectrum activity in vitro against drug resistant bacterial strains
